# Measured values taken from patent publication US9511086B2, “Method for improving immune system function by administering agents that inhibit DNA-dependent protein kinase-directed apoptosis” (The Board of Trustees of the Leland Stanford Junior …, priority 2010, dated 2016).
# T1: IL-1R type I (Homo sapiens, UniProt P14778)
# T1 sequence (P14778 18-569): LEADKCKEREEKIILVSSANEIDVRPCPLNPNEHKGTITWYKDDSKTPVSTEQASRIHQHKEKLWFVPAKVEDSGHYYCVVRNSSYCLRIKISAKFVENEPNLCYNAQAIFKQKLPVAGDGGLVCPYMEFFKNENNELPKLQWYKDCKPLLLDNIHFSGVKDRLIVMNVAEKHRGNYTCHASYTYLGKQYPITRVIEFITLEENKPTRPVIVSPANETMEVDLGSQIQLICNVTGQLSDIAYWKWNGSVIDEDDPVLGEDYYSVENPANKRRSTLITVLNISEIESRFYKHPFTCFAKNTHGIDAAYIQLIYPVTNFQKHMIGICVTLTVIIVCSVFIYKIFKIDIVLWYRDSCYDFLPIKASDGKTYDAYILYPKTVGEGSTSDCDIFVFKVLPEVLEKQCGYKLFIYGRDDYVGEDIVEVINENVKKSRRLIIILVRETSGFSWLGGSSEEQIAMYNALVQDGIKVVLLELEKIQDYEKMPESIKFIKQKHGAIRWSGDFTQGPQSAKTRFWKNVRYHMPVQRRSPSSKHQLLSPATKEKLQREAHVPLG
# Columns and labels:
# [1] = system: CD4+CD45RO− T cells from RA patients and controls; test: T-cell apoptosis (PI) with homeostatic cytokines; type: cell-based, human; settings: 72 h culture; IL-2 20 U/ml, IL-7 20 ng/ml, IL-15 10 ng/ml; similar in control and RA T cells
# Procedure: FIG. 1. […] CD4+CD45RO− T cells were isolated from the peripheral blood of RA patients and controls. Cells were maintained in culture without mitogenic stimulation for 72 h. (A) T cells undergoing apoptosis were identified by Annexin V and 7-AAD staining in patient-derived and control samples. Data are given as mean±SEM from 6 patients and 6 controls. (B) Representative data from one patient and one control collected after 72 h are shown. (C) Cells were maintained in culture with IL-2 (20 U/ml), IL-7 (20 ng/ml), IL-15 (10 ng/ml), or a mixture of the three (Mix) for 72 h. T cells undergoing apoptosis were identified by PI staining. Data are given as mean±SEM from 7 patients and 5 controls. (D) DNA breaks were quantified by comet assay after 72 h. Data are given as mean±SEM of 7 patients and 6 controls with a minimum of 90 individual cells analyzed in each sample.
# To quantify T-cell apoptosis, CD4^+CD45RO^− cells were washed and suspended in 500 μl FACS buffer supplemented with EasyComp Blank Particles (Spherotech, Lake Forest, Ill.). Uptake of PI (Sigma-Aldrich) was determined by flow cytometry. Apoptotic cells were detected with PE-Annexin V (BD Biosciences, San Jose, Calif.) and 7-AAD (BD Biosciences).
# IL-1R type I = target: T1, IL-1R type I; settings: cited from earlier work
# [2] = system: B cells in blood and tissue; settings: cynomolgus monkeys; cited from earlier work
# [3] = system: CD4+CD45RO− T cells from RA patients; test: T-cell apoptosis by flow cytometry staining for PI, RA T cells; type: cell-based, human
# Procedure: FIG. 5. Inhibition of DNA-PKcs activity protects RA T cells from apoptosis. CD4+CD45RO− T cells were isolated from 6 control donors and 7 RA patients. Cells were maintained in culture without stimulation for 48 h and then were treated with the DNA-PKcs inhibitor IC86621 (50 nM, 100 nM) or vehicle for 24 h. Cells were harvested and (A) T-cell apoptosis was measured by flow cytometry staining for PI. Representative cytometric data from one patient and one control are shown. (B) Frequencies of PI-positive T-cells in the absence and presence of the DNA-PKcs inhibitor from 6 controls and 7 RA patients are presented as mean±SEM.
# FIG. 6. Silencing of the DNA-PKcs gene reduces apoptosis in RA T cells. CD4+CD45RO− T cells were purified from 3 control donors and 3 RA patients and transfected with control or DNA-PKcs specific siRNA oligonucleotides by nucleofection. (A, B) Twenty-four hours after transfection, DNA-PKcs transcript levels were quantified by qPCR, and DNA-PKcs protein levels were detected by Western blotting. (C) T-cell apoptosis was analyzed by staining for PI. Representative data from one patient and one control are shown. (D) Cell apoptosis from 3 control and 3 RA samples are presented as mean±SEM.
# FIG. 7. […] (A) CD4+CD45RO− T cells were isolated and cultured in the presence of the indicated enzyme inhibitors for 24 h. T-cell apoptosis was quantified through flow cytometry staining for PI. (B) Cells were maintained in culture without stimulation for 48 h and then were treated with the JNK inhibitor. PI-positive T cells were measured after 24 h of treatment with the JNK inhibitor II (5 μM or 10 μM) or vehicle. Frequencies of apoptotic T cells from 6 controls and 7 RA patients are presented as mean±SEM. (C) Representative flow cytometry results from one control and one patient. (D) Flow cytometry analysis of phosphorylated JNK levels in control and RA T cells after culturing without mitogenic stimulation for 72 h. Representative data from one patient and one control are presented. (E) Expression of pJNK protein in n=6 RA and n=6 control samples at 72 h is given as MFI of FITC-pJNK. (F) Flow cytometry analysis of phosphorylated JNK levels in freshly isolated control and RA naïve CD4 T cells. Expression of pJNK protein in n=7 RA and n=7 control samples at day 0 is given as MFI of FITC-pJNK. (G) Quantification of JNK and pJNK protein expression at 72 h by Western blotting. (H) Relative expression levels of pJNK were quantified by measuring band intensities adjusted by total JNK in 6 RA patients and 6 control donors. Data are presented as mean±SEM. (I) CD4+CD45RO− T cells were purified from RA donors and transfected with control or DNA-PKcs-specific siRNA oligonucleotides by nucleofection. Twenty-four hours after transfection, DNA-PKcs and pJNK protein levels were detected by Western blotting. A representative blot from three independent experiments is shown.
# Peripheral blood mononuclear cells (PBMC) were separated from whole blood with Lymphocyte Separation Medium (Mediatech Inc., Herndon, Va.). CD45RO^− cells were negatively selected with microbeads (Miltenyi Biotec Inc., Auburn, Calif.), and the naïve CD4^+CD45RO^− population was subsequently selected with CD4 microbeads (autoMACS, Miltenyi Biotec Inc.).
# CD4^+CD45RO^− T cells were maintained in a resting state in DMEM without mitogenic stimulation for three days. In selected experiments, T-cell homeostatic cytokines were supplemented. To test for the role of signaling networks in mediating apoptosis, the following inhibitors were added to the cultures at day 0: DNA-PKcs inhibitor IC86621 (Sigma-Aldrich, St. Louis, Mo.), JNK inhibitor II (Calbiochem, La Jolla, Calif.), p38 inhibitor (Alexis Biochemicals, Plymouth Meeting, Pa., SB203580), CaM inhibitor (Calbiochem), NE-KB inhibitor (Calbiochem), and AKT inhibitor (Calbiochem). […]
# Bim = Bim protein level by flow cytometry in RA T cells; type: cell-based, human; settings: treated vs untreated
# Procedure: (§1) FIG. 8. The DNA-PKcs-JNK pathway upregulates the apoptogenic molecules Bim and Bmf in RA CD4+ T cells. CD4+CD45RO− T cells were isolated from the peripheral blood of 6 controls and 6 RA patients. Cells were maintained in culture without mitogenic stimulation for 72 h. (A) Puma, Noxa, Bim and Bmf transcript levels in freshly isolated cells were quantified by qPCR. Data are presented as mean±SEM. (B) Flow cytometry analysis of Bim levels in control and RA naïve T cells after 72 h of culture. Expression of Bim protein in n=5 RA and n=5 controls samples is given as MFI of Alexa Fluor 488 Bim. (C) Flow cytometry analysis of Bmf levels in control and RA naïve T cells. Expression of Bmf protein in n=6 RA and n=4 controls samples is given as MFI of PE Bmf. (D) Bcl-2 protein levels were analyzed by flow cytometry. Expression of Bcl-2 protein in n=6 RA and n=6 control samples is given as MFI of FITC Bcl-2. (E) Bim protein level in the absence and presence of the DNA-PKcs inhibitor were analyzed by flow cytometry in samples from 4 RA patients. […]
# (§2) For intracellular staining, cells were fixed directly with 1.5% formaldehyde for 10 min at room temperature and resuspended in 90% methanol. […] Proteins or 8-oxoguanine expression were detected by an LSRII flow cytometer (BD Biosciences). Data were analyzed by FlowJo software (Tree Star Inc., Ashland, Oreg.). […]
# Bmf = Bmf protein level by flow cytometry in RA T cells; type: cell-based, human; settings: treated vs untreated
# Procedure: as §1, §2
# rheumatoid arthritis = settings: cited from earlier work
# TNFα = TNFα (Homo sapiens, UniProt P01375); settings: cited from earlier work
# Chain of TNFα (P01375 77-233 limits assumed): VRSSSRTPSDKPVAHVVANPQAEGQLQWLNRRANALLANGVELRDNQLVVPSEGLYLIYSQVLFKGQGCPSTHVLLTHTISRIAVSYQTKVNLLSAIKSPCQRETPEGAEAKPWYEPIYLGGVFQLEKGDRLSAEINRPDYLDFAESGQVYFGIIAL
molecule,measurement,setting,value
"IL-15: growth-promoting, T-cell homeostatic cytokine",apoptosis rates / T-cell attrition,[1],prevented only one-third of the T-cell attrition
Anakinra: human recombinant IL-1 receptor antagonist,affinity of binding to IL-1R type I,IL-1R type I,same affinity as IL-1
LymphoStat-B: fully human IgG1λ monoclonal antibody that neutralizes human BlyS,B cells in blood and tissue,[2],selectively reduces B cells in blood and tissue
same,toxicity,[2],no overt toxicity
"O=C1c2ccccc2-c2n[nH]c3cccc1c23 [JNK inhibitor II, anthra(1,9-cd)pyrazol-6(2H)-one]",T cell death in screen with panel of signal pathway inhibitors,"[3]; RA T cells cultured with inhibitor for 24 h, PI staining",able to protect RA T cells from dying
same,death rate in dose-response experiments,"[3]; RA T cells, 48 h culture then 5 μM or 10 μM for 24 h",normalize the death rate
same,effectiveness of 10 μM compared with 5 μM,"[3]; RA T cells, PI-positive cells after 24 h of treatment",more effective
same,intracellular Bim levels,Bim,reduced
same,intracellular Bmf levels,Bmf,reduced
"CN(Cc1cnc2nc(N)nc(N)c2n1)c1ccc(C(=O)N[C@@H](CCC(=O)O)C(=O)O)cc1 [MTX, Methotrexate]",patients having some response,rheumatoid arthritis,70%
Etanercept,affinity for TNFα of the dimeric receptor relative to the monomeric receptor,TNFα,50-1000 fold
"IL-7: growth-promoting, T-cell homeostatic cytokine (protein, UniProt P13232 26-177, looked up) Interleukin-7: DCDIEGKDGKQYESVLMVSIDQLLDSMKEIGSNCLNNEFNFFKRHICDANKEGMFLFRAARKLRQFLKMNSTGDFDLHLLKVSEGTTILLNCTGQVKGRKPAALGEAQPTKSLEENKSLKEQKKLNDLCFLKRLLQEIKTCWNKILMGTKEH",apoptosis rates / T-cell attrition,[1],prevented only one-third of the T-cell attrition
